Experimental data from patent US11807634B2, “Cyclopropyl dihydroquinoline sulfonamide compounds” (AMGEN INC., priority 2020, dated 2023).

Test system: CYP3A4
Assay: Human CYP 3A4 induction assay (mRNA, cryopreserved human hepatocytes)
Assay type: in vitro ADME
Details: human hepatocytes, 10 uM test compound, 72 hours, mRNA, percent of control (rifampin positive control)
Description: Human CYP 3A4 Induction Assay
Cryopreserved human hepatocytes were seeded in 96-well collagen coated plates at 70,000 cells per well in hepatocyte plating media (HPM, final concentrations: 1× Dulbecco's Modified Eagle's Medium, 0.1 μM dexamethasone, 10% fetal bovine serum, 1× ITS, 1×PSG) followed by incubation at 37° C. under 5% CO2 and 90% relative humidity for 2 days to allow hepatocytes to form a confluent layer. On Day 3, hepatocytes were treated with either test compound or rifampin (20 μM, positive control for CYP3A induction) prepared in hepatocyte incubation media ((HIM, final concentrations: 1× William's Medium E, 0.1 μM dexamethasone, 1×ITS, 1×PSG). Treatment was performed for 72 hours with either 2 concentrations (2 μM or 10 μM) or a range of concentrations (0.001 μM to 100 μM) of the test compound to obtain full dose-response curve. Fresh media containing the relevant concentrations of the test compound was replaced every day until the samples were processed. After 72 hours of incubation, samples were processed for mRNA analysis using bDNA technology using manufacturer's instructions (Affymetrix, Fremont, Calif.). Cell viability was tested at the end of the experiment using MTT assay kit (Roche Diagnostics, Basel, Switzerland). Data was analyzed and presented as percent of control (POC) and Emax and EC50 obtained when appropriate according to guidance from Center for Drug Evaluation and Research (CDER), 2006, Guidance for Industry, Drug Interaction Studies—Study Design, Data Analysis, and Implications for Dosing and Labeling.
Cryopreserved human hepatocytes were seeded in 96-well collagen coated plates at 70,000 cells per well in hepatocyte plating media (HPM, final concentrations: 1× Dulbecco's Modified Eagle's Medium, 0.1 μM dexamethasone, 10% fetal bovine serum, 1×ITS, 1×PSG) followed by incubation at 37° C. under 5% CO2 and 90% relative humidity for 2 days to allow hepatocytes to form a confluent layer. On Day 3, hepatocytes were treated with either test compound or rifampin (20 μM, positive control for CYP3A induction) prepared in hepatocyte incubation media ((HIM, final concentrations: 1× William's Medium E, 0.1 μM dexamethasone, 1×ITS, 1×PSG). Treatment was performed for 72 hours with either 2 concentrations (2 μM or 10 μM) or a range of concentrations (0.001 μM to 100 μM) of the test compound to obtain full dose-response curve. Fresh media containing the relevant concentrations of the test compound was replaced every day until the samples were processed. After 72 hours of incubation, samples were processed for mRNA analysis using bDNA technology using manufacturer's instructions (Affymetrix, Fremont, Calif.). Cell viability was tested at the end of the experiment using MTT assay kit (Roche Diagnostics, Basel, Switzerland). Data was analyzed and presented as percent of control (POC) and Emax and EC50 obtained when appropriate, as described in Halladay, J. et al, 2012, An “all-inclusive” 96-well cytochrome P450 induction method: Measuring enzyme activity, mRNA levels, protein levels, and cytotoxicity from one well using cryopreserved human hepatocytes, Pharmacological and Toxicological Methods, 66:270-275.
The cytochrome P450 (CYP) is a well-known superfamily of enzymes that are responsible for the oxidative and reductive metabolic transformation of medications used in clinical practice. In addition, the CYP enzymes are commonly associated with causing many clinically relevant drug-drug interactions. Of the CYP enzymes, CYP3A4 is not only the most prevalent CYP enzyme in the liver and intestine, but is responsible for metabolism and elimination of approximately 50% of marketed drugs. In addition, CYP3A4 activity can be induced (or increased) or inhibited (decreased) in response to administration of certain drugs, thereby affecting concentrations of their own or certain concomitant drugs present in the body. […]

Point of comparison: COc1cc([C@H]2C[C@@H]2C(F)(F)F)ccc1-n1c(=O)ccc2cc(S(=O)(=O)Nc3ccon3)c(F)cc21 (atropisomer, axis not shown; (P)) [Example 48, (P)-7-fluoro-N-(isoxazol-3-yl)-1-(2-methoxy-4-((1S,2S)-2-(trifluoromethyl)cyclopropyl)phenyl)-2-oxo-1,2-dihydroquinoline-6-sulfonamide], “CYP3A4 mRNA Induct Hu 10 uM POC” value 54.02%. Against it:
- COc1cc([C@H]2C[C@@H]2C(F)(F)F)c(C)cc1-n1c(=O)ccc2cc(S(=O)(=O)Nc3ncccn3)ccc21 (atropisomer, axis not shown; (P)) [Example 29, (P)-1-(2-methoxy-5-methyl-4-((1S,2S)-2-(trifluoromethyl)cyclopropyl)phenyl)-2-oxo-N-(pyrimidin-2-yl)-1,2-dihydroquinoline-6-sulfonamide] — higher, 74.53%
- COc1cc([C@H]2C[C@@H]2C2CC2)c(F)cc1-n1c(=O)ccc2cc(S(=O)(=O)Nc3ccon3)ccc21 (atropisomer, axis not shown; (P)) [Example 31, (P)-1-(4-((1R,2S)-[1,1′-bi(cyclopropan)]-2-yl)-5-fluoro-2-methoxyphenyl)-N-(isoxazol-3-yl)-2-oxo-1,2-dihydroquinoline-6-sulfonamide] — higher, 100.7%
- COc1cc([C@@H]2C[C@H]2C(F)(F)F)c(F)cc1-n1c(=O)ccc2cc(S(=O)(=O)Nc3ncns3)ccc21 (atropisomer, axis not shown; (P)) [Example 34, (P)-1-(5-fluoro-2-methoxy-4-((1R,2R)-2-(trifluoromethyl)cyclopropyl)phenyl)-2-oxo-N-(1,2,4-thiadiazol-5-yl)-1,2-dihydroquinoline-6-sulfonamide] — lower, 12.69%
- COc1cc([C@@H]2C[C@H]2C(F)(F)F)c(F)cc1-n1c(=O)ccc2cc(S(=O)(=O)Nc3ncco3)ccc21 (atropisomer, axis not shown; (P)) [Example 35, (P)-1-(5-fluoro-2-methoxy-4-((1R,2R)-2-(trifluoromethyl)cyclopropyl)phenyl)-N-(oxazol-2-yl)-2-oxo-1,2-dihydroquinoline-6-sulfonamide] — lower, 53.28%
- COc1cc([C@H]2C[C@@H]2C(F)(F)F)c(F)cc1-n1c(=O)ccc2cc(S(=O)(=O)Nc3ncco3)ccc21 (atropisomer, axis not shown; (P)) [Example 36, (P)-1-(5-fluoro-2-methoxy-4-((1S,2S)-2-(trifluoromethyl)cyclopropyl)phenyl)-N-(oxazol-2-yl)-2-oxo-1,2-dihydroquinoline-6-sulfonamide] — higher, 102.8%
- COc1cc([C@H]2C[C@@H]2C(F)(F)F)c(C#N)cc1-n1c(=O)ccc2cc(S(=O)(=O)Nc3ccon3)ccc21 (atropisomer, axis not shown; (P)) [Example 37, (P)-1-(5-cyano-2-methoxy-4-((1S,2S)-2-(trifluoromethyl)cyclopropyl)phenyl)-N-(isoxazol-3-yl)-2-oxo-1,2-dihydroquinoline-6-sulfonamide] — lower, 16.39%
- COc1cc([C@@H]2C[C@H]2C(F)(F)F)ccc1-n1c(=O)ccc2cc(S(=O)(=O)Nc3ccon3)ccc21 (atropisomer, axis not shown; (P)) [Example 38, (P)-N-(isoxazol-3-yl)-1-(2-methoxy-4-((1R,2R)-2-(trifluoromethyl)cyclopropyl)phenyl)-2-oxo-1,2-dihydroquinoline-6-sulfonamide] — lower, 29.06%
- COc1cc([C@H]2C[C@@H]2C(F)(F)F)ccc1-n1c(=O)ccc2cc(S(=O)(=O)Nc3ccon3)ccc21 (atropisomer, axis not shown; (P)) [Example 39, (P)-N-(isoxazol-3-yl)-1-(2-methoxy-4-((1S,2S)-2-(trifluoromethyl)cyclopropyl)phenyl)-2-oxo-1,2-dihydroquinoline-6-sulfonamide] — lower, 38.35%
- COc1cc([C@@H]2C[C@H]2C(F)(F)F)c(F)cc1-n1c(=O)cc(F)c2cc(S(=O)(=O)Nc3ccon3)ccc21 (atropisomer, axis not shown; (P)) [Example 44, (P)-4-fluoro-1-(5-fluoro-2-methoxy-4-((1R,2R)-2-(trifluoromethyl)cyclopropyl)phenyl)-N-(isoxazol-3-yl)-2-oxo-1,2-dihydroquinoline-6-sulfonamide] — lower, 26.89%
- COc1cc([C@@H]2C[C@H]2C(F)(F)F)ccc1-n1c(=O)ccc2cc(S(=O)(=O)Nc3ccon3)c(F)cc21 (atropisomer, axis not shown; (P)) [Example 47, (P)-7-fluoro-N-(isoxazol-3-yl)-1-(2-methoxy-4-((1R,2R)-2-(trifluoromethyl)cyclopropyl)phenyl)-2-oxo-1,2-dihydroquinoline-6-sulfonamide] — lower, 14.245%
- COc1cc([C@H]2C[C@@H]2C(F)(F)F)c(Cl)cc1-n1c(=O)ccc2cc(S(=O)(=O)Nc3cccnn3)ccc21 (single isomer, unassigned) [Example 15] — higher, 69.11%
- COc1cc([C@H]2C[C@@H]2C(F)(F)F)c(C)cc1-n1c(=O)ccc2cc(S(=O)(=O)Nc3ccon3)ccc21 (single isomer, unassigned) [Example 27] — higher, 64.14%
- O=c1ccc2cc(S(=O)(=O)Nc3ccon3)ccc2n1-c1cc(F)c([C@H]2C[C@@H]2C(F)(F)F)cc1OC1CC1 (single isomer, unassigned) [Example 41] — lower, 13.21%
- COc1cc([C@H]2C[C@@H]2C(F)(F)F)c(F)cc1-n1c(=O)ccc2cc(S(=O)(=O)Nc3ccon3)c(F)cc21 (single isomer, unassigned) [Example 46] — lower, 53.03%
- COc1cc(C2CC2)c(F)cc1-n1c(=O)ccc2cc(S(=O)(=O)Nc3ccon3)ccc21 [A, 1-(4-cyclopropyl-5-fluoro-2-methoxyphenyl)-N-(isoxazol-3-yl)-2-oxo-1,2-dihydroquinoline-6-sulfonamide, reference compound] — higher, 84.31%
